# Measurements reported in patent US12428406B2 (PMV Pharmaceuticals, Inc., priority 2019, dated 2025).
# Biological target: T1, p53 Y220C (Homo sapiens, UniProt P04637, Y220C)
# T1 construct: The recombinant protein was a truncation mutant containing only amino acids 94-312 of p53; made in house; host or cells: E. coli
# Experiment: In vitro DNA binding activity assay (HTRF / TR-FRET): stabilization of p53 Y220C and increase of its DNA binding activity
# Assay type: biochemical
# Conditions: recombinant His-tagged p53 Y220C DNA binding domain (aa 94-312), biotin-labeled consensus DNA, incubated at 27° C. or 29° C. for 60 min
# In short: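 Compound effect on DNA binding of recombinant His-p53 Y220C (E. coli) to biotin-labeled consensus DNA, expressed as SC150, the concentration giving 50% increase versus untreated. Serial 3-fold DMSO dilutions of 4.5 mM stocks; room-temperature steps of 15 then 20 min.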
# T1 sequence (P04637 94-312, change not shown): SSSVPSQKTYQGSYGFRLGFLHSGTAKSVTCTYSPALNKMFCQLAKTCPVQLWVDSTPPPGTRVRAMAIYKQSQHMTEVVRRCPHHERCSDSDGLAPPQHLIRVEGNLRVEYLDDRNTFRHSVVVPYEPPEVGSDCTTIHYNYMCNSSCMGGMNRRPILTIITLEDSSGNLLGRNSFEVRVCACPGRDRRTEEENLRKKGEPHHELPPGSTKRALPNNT
row,SMILES,SC150 (concentration of the compound required to increase the DNA binding activity by 50%)
1,"COc1cc(S(C)(=O)=O)ccc1NCC#Cc1cc2c(NC3CCN(C[C@@H](CO)OC)CC3)cccc2n1CC(F)(F)F [Compound 630A, (2S)-3-{4-[(2-{3-[(4-methanesulfonyl-2-methoxyphenyl)amino]prop-1-yn-1-yl}-1-(2,2,2-trifluoroethyl)-1H-indol-4-yl)amino]piperidin-1-yl}-2-methoxypropan-1-ol]",+ (+ = 0 μM ≤ SC150 < 0.05 μM)
2,"CCOc1cc(S(C)(=O)=O)ccc1NCC#Cc1cc2c(NC3CCN(CC(O)COC)CC3)cccc2n1CC(F)(F)F (stereo not drawn) [Compound 631A, 1-{4-[(2-{3-[(2-ethoxy-4-methanesulfonylphenyl)amino]prop-1-yn-1-yl}-1-(2,2,2-trifluoroethyl)-1H-indol-4-yl)amino]piperidin-1-yl}-3-methoxypropan-2-ol]",+ (+ = 0 μM ≤ SC150 < 0.05 μM)
3,"COc1cc(S(N)(=O)=O)ccc1NCC#Cc1cc2c(NC3CCN(C[C@@H](CO)OC)CC3)cccc2n1CC(F)(F)F [Compound 632A, 4-({3-[4-({l-[(2S)-3-hydroxy-2-methoxypropyl]piperidin-4-yl}amino)-1-(2,2,2-trifluoroethyl)-1H-indol-2-yl]prop-2-yn-1-yl}amino)-3-methoxybenzene-1-sulfonamide]",+ (+ = 0 μM ≤ SC150 < 0.05 μM)
4,"COCC(O)CN1CCC(Nc2cccc3c2cc(C#CCNc2ccc(C(=O)NC(C)C)cc2OC)n3CC(F)(F)F)CC1 (stereo not drawn) [Compound 633A, 4-{[3-(4-{[1-(2-hydroxy-3-methoxypropyl)piperidin-4-yl]amino}-1-(2,2,2-trifluoroethyl)-1H-indol-2-yl)prop-2-yn-1-yl]amino}-3-methoxy-N-(propan-2-yl)benzamide]",+ (+ = 0 μM ≤ SC150 < 0.05 μM)
5,"COCC(O)CN1CCC(Nc2cccc3c2cc(C#CCNc2ccc(S(N)(=O)=O)cc2O)n3CC(F)(F)F)CC1 (stereo not drawn) [Compound 634A, 3-hydroxy-4-{[3-(4-{[1-(2-hydroxy-3-methoxypropyl)piperidin-4-yl]amino}-1-(2,2,2-trifluoroethyl)-1H-indol-2-yl)prop-2-yn-1-yl]amino}benzene-1-sulfonamide]",+ (+ = 0 μM ≤ SC150 < 0.05 μM)
6,"COC[C@@H](CN1CCC(Nc2cccc3c2cc(C#CCNc2ccc(S(C)(=O)=O)cc2OC)n3CC(F)(F)F)CC1)OC(=O)C(C)C [Compound 635A, (2R)-1-{4-[(2-{3-[(4-methanesulfonyl-2-methoxyphenyl)amino]prop-1-yn-1-yl}-1-(2,2,2-trifluoroethyl)-1H-indol-4-yl)amino]piperidin-1-yl}-3-methoxypropan-2-yl 2-methylpropanoate]",+ (+ = 0 μM ≤ SC150 < 0.05 μM)
7,"COCCOc1cc(S(C)(=O)=O)ccc1NCC#Cc1cc2c(NC3CCN(CC(O)COC)CC3)cccc2n1CC(F)(F)F (stereo not drawn) [Compound 637A, 1-(4-{[2-(3-{[4-methanesulfonyl-2-(2-methoxyethoxy)phenyl]amino}prop-1-yn-1-yl)-1-(2,2,2-trifluoroethyl)-1H-indol-4-yl]amino}piperidin-1-yl)-3-methoxypropan-2-ol]",+ (+ = 0 μM ≤ SC150 < 0.05 μM)
8,"COC[C@H](CN1CCC(Nc2cccc3c2cc(C#CCNc2ccc(S(C)(=O)=O)cc2OC)n3CC(F)(F)F)CC1)OC(=O)C(C)C [Compound 638A, (2S)-1-{4-[(2-{3-[(4-methanesulfonyl-2-methoxyphenyl)amino]prop-1-yn-1-yl}-1-(2,2,2-trifluoroethyl)-1H-indol-4-yl)amino]piperidin-1-yl}-3-methoxypropan-2-yl 2-methylpropanoate]",+ (+ = 0 μM ≤ SC150 < 0.05 μM)
9,"COCC(O)CN1CCC(Nc2cccc3c2cc(C#CCNc2ccc(S(C)(=O)=O)cc2OCC#N)n3CC(F)(F)F)CC1 (stereo not drawn) [Compound 642A, 2-(2-{[3-(4-{[1-(2-hydroxy-3-methoxypropyl)piperidin-4-yl]amino}-1-(2,2,2-trifluoroethyl)-1H-indol-2-yl)prop-2-yn-1-yl]amino}-5-methanesulfonylphenoxy) acetonitrile]",+ (+ = 0 μM ≤ SC150 < 0.05 μM)
10,"COCC(O)CN1CCC(Nc2c(OC)ccc3c2cc(C#CCNc2ccc(S(C)(=O)=O)cc2OC)n3CC(F)(F)F)CC1 (stereo not drawn) [Compound 643A, 1-{4-[(2-{3-[(4-methanesulfonyl-2-methoxyphenyl)amino]prop-1-yn-1-yl}-5-methoxy-1-(2,2,2-trifluoroethyl)-1H-indol-4-yl)amino]piperidin-1-yl}-3-methoxypropan-2-ol]",+++ (+++ = 0.1 μM ≤ SC150 < 0.2 μM)
11,"COCC(O)CN1CCC(Nc2cccc3c2cc(C#CCNc2ccc(S(C)(=O)=O)cc2OCCO)n3CC(F)(F)F)CC1 (stereo not drawn) [Compound 644A, 1-(4-{[2-(3-{[2-(2-hydroxyethoxy)-4-methanesulfonylphenyl]amino}prop-1-yn-1-yl)-1-(2,2,2-trifluoroethyl)-1H-indol-4-yl]amino}piperidin-1-yl)-3-methoxypropan-2-ol]",+ (+ = 0 μM ≤ SC150 < 0.05 μM)
12,"COCC(O)CN1CCC(Nc2cccc3c2cc(C#CCNc2ccc(S(C)(=O)=O)cc2OCC(F)(F)F)n3CC(F)(F)F)CC1 (stereo not drawn) [Compound 645A, 1-(4-{[2-(3-{[4-methanesulfonyl-2-(2,2,2-trifluoroethoxy)phenyl]amino}prop-1-yn-1-yl)-1-(2,2,2-trifluoroethyl)-1H-indol-4-yl]amino}piperidin-1-yl)-3-methoxypropan-2-ol]",+ (+ = 0 μM ≤ SC150 < 0.05 μM)
13,"COCC(O)CN1CCC(Nc2cccc3c2cc(C#CCOc2ccc(S(C)(=O)=O)cc2N)n3CC(F)(F)F)CC1 (stereo not drawn) [Compound 646A, 1-[4-((2-[3-(2-amino-4-methanesulfonylphenoxy)prop-1-yn-1-yl]-1-(2,2,2-trifluoroethyl)-1H-indol-4-yl}amino)piperidin-1-yl]-3-methoxypropan-2-ol]",+ (+ = 0 μM ≤ SC150 < 0.05 μM)
14,"CNC(=O)c1ccc(NCC#Cc2cc3c(NC4CCN(C[C@@H](O)COC)CC4)cccc3n2CC(F)(F)F)c(OC)c1 [Compound 647A, 4-({3-[4-({1-[(2R)-2-hydroxy-3-methoxypropyl]piperidin-4-yl}amino)-1-(2,2,2-trifluoroethyl)-1H-indol-2-yl]prop-2-yn-1-yl}amino)-3-methoxy-N-methylbenzamide]",+ (+ = 0 μM ≤ SC150 < 0.05 μM)
15,"CNC(=O)c1ccc(NCC#Cc2cc3c(NC4CCN(C[C@H](O)COC)CC4)cccc3n2CC(F)(F)F)c(OC)c1 [Compound 648A, 4-({3-[4-({1-[(2S)-2-hydroxy-3-methoxypropyl]piperidin-4-yl}amino)-1-(2,2,2-trifluoroethyl)-1H-indol-2-yl]prop-2-yn-1-yl}amino)-3-methoxy-N-methylbenzamide]",+ (+ = 0 μM ≤ SC150 < 0.05 μM)
16,"CNC(=O)c1ccc(NCC#Cc2cc3c(NC4CCN(C[C@H](CO)OC)CC4)cccc3n2CC(F)(F)F)c(OC)c1 [Compound 649A, 4-({3-[4-({1-[(2R)-3-hydroxy-2-methoxypropyl]piperidin-4-yl}amino)-1-(2,2,2-trifluoroethyl)-1H-indol-2-yl]prop-2-yn-1-yl}amino)-3-methoxy-N-methylbenzamide]",+ (+ = 0 μM ≤ SC150 < 0.05 μM)
17,"CNC(=O)c1ccc(NCC#Cc2cc3c(NC4CCN(C[C@@H](CO)OC)CC4)cccc3n2CC(F)(F)F)c(OC)c1 [Compound 650A, 4-({3-[4-({1-[(2S)-3-hydroxy-2-methoxypropyl]piperidin-4-yl}amino)-1-(2,2,2-trifluoroethyl)-1H-indol-2-yl]prop-2-yn-1-yl}amino)-3-methoxy-N-methylbenzamide]",+ (+ = 0 μM ≤ SC150 < 0.05 μM)
18,"CNc1cc(S(C)(=O)=O)ccc1OCC#Cc1cc2c(NC3CCN(CC(O)COC)CC3)cccc2n1CC(F)(F)F (stereo not drawn) [Compound 651A, l-{4-[(2-{3-[4-methanesulfonyl-2-(methylamino)phenoxy]prop-1-yn-1-yl}-1-(2,2,2-trifluoroethyl)-1H-indol-4-yl)amino]piperidin-1-yl}-3-methoxypropan-2-ol]",+ (+ = 0 μM ≤ SC150 < 0.05 μM)
19,"CNC(=O)c1ccc(NCC#Cc2cc3c(NC4CCN(CC(O)COC)CC4)cccc3n2CC(F)(F)F)c(OCCF)c1 (stereo not drawn) [Compound 652A, 3-(2-fluoroethoxy)-4-{[3-(4-{[1-(2-hydroxy-3-methoxypropyl)piperidin-4-yl]amino}-1-(2,2,2-trifluoroethyl)-1H-indol-2-yl)prop-2-yn-1-yl]amino}-N-methylbenzamide]",+ (+ = 0 μM ≤ SC150 < 0.05 μM)
20,"CNC(=O)c1ccc(NCC#Cc2cc3c(NC4CCN(CC(O)COC)CC4)cccc3n2CC(F)(F)F)c(OCCOC)c1 (stereo not drawn) [Compound 653A, 4-{[3-(4-{[1-(2-hydroxy-3-methoxypropyl)piperidin-4-yl]amino}-1-(2,2,2-trifluoroethyl)-1H-indol-2-yl)prop-2-yn-1-yl]amino}-3-(2-methoxyethoxy)-N-methylbenzamide]",+ (+ = 0 μM ≤ SC150 < 0.05 μM)
21,"CNC(=O)c1ccc(NCC#Cc2cc3c(NC4CCN(CC(O)COC)CC4)cccc3n2CC(F)(F)F)c(OCC#N)c1 (stereo not drawn) [Compound 654A, 3-(cyanomethoxy)-4-{[3-(4-{[1-(2-hydroxy-3-methoxypropyl)piperidin-4-yl]amino}-1-(2,2,2-trifluoroethyl)-1H-indol-2-yl)prop-2-yn-1-yl]amino}-N-methylbenzamide]",+ (+ = 0 μM ≤ SC150 < 0.05 μM)
